How the values were obtained:
human TRPA1 = target: T1, human TRPA1 (Homo sapiens, UniProt O75762); assay: 45Calcium uptake assay: inhibition of AITC induced cellular uptake of radioactive calcium, human TRPA1 expressing CHO cells; assay type: cell-based; details: numeric values, AITC 30 μM
T1 construct: expressed in transfected cells; host or cells: CHO cells (G-418 selection)
In short: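 CHO cells expressing TRPA1 were preincubated 10 min with compound (0.5% DMSO final), then given AITC (30 μM human, 10 μM rat) plus 5 μCi/ml 45Ca2+ for 3 min. Lysate radioactivity measured by scintillation; IC50 obtained by nonlinear regression of % maximal response without antagonist.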

rat TRPA1 = target: T2, rat TRPA1 (Rattus norvegicus, UniProt Q6RI86); assay: 45Calcium uptake assay: inhibition of AITC induced cellular uptake of radioactive calcium, rat TRPA1 expressing CHO cells; assay type: cell-based; details: AITC 10 μM; for IC50: class symbols; for inhibition at 10 µM: 10.0 μM compound, read-out: rat TRPA1 Percentage inhibition at 10.0 μM; for inhibition at 1 µM: read-out: rat TRPA1 Percentage inhibition
T2 construct: expressed in transfected cells; host or cells: CHO cells (Zeocin selection)
T2 sequence (Q6RI86 whole entry): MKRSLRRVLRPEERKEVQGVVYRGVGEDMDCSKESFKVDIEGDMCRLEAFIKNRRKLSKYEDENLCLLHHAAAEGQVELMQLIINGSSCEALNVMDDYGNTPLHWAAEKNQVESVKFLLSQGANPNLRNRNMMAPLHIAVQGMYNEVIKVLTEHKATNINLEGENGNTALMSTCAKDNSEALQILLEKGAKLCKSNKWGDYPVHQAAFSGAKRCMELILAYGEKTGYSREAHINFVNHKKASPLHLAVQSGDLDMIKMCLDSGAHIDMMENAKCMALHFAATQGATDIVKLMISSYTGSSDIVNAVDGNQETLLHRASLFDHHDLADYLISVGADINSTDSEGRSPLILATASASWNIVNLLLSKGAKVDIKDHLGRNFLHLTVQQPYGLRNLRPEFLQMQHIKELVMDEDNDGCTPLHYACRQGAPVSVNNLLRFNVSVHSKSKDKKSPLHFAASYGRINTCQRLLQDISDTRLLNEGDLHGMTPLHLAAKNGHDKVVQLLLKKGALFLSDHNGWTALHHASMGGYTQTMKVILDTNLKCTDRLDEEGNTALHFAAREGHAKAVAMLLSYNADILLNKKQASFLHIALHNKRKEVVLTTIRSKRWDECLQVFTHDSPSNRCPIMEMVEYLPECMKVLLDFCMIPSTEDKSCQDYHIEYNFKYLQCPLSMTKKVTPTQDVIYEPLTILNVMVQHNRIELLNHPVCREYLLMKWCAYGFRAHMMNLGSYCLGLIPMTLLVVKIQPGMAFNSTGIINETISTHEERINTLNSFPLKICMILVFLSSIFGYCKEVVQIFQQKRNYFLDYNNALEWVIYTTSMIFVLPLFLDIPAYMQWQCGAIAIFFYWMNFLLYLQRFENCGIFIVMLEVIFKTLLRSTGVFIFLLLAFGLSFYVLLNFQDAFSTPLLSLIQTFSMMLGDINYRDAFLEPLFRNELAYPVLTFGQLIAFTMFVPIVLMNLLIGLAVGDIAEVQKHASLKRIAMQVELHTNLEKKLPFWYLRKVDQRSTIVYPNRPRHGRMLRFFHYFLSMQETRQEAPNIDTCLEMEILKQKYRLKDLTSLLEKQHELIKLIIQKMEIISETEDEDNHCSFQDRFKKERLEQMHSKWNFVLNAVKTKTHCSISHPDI
In short: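 CHO cells expressing rat or human TRPA1 were pre-treated with compound for 10 min, then given AITC (30 μM human, 10 μM rat) plus 5 μCi/ml 45Ca2+ for 3 min; final DMSO 0.5%. Lysate radioactivity was counted by scintillation. IC50 came from nonlinear regression of concentration-response curves as % of maximal response.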

T1 sequence (O75762 whole entry): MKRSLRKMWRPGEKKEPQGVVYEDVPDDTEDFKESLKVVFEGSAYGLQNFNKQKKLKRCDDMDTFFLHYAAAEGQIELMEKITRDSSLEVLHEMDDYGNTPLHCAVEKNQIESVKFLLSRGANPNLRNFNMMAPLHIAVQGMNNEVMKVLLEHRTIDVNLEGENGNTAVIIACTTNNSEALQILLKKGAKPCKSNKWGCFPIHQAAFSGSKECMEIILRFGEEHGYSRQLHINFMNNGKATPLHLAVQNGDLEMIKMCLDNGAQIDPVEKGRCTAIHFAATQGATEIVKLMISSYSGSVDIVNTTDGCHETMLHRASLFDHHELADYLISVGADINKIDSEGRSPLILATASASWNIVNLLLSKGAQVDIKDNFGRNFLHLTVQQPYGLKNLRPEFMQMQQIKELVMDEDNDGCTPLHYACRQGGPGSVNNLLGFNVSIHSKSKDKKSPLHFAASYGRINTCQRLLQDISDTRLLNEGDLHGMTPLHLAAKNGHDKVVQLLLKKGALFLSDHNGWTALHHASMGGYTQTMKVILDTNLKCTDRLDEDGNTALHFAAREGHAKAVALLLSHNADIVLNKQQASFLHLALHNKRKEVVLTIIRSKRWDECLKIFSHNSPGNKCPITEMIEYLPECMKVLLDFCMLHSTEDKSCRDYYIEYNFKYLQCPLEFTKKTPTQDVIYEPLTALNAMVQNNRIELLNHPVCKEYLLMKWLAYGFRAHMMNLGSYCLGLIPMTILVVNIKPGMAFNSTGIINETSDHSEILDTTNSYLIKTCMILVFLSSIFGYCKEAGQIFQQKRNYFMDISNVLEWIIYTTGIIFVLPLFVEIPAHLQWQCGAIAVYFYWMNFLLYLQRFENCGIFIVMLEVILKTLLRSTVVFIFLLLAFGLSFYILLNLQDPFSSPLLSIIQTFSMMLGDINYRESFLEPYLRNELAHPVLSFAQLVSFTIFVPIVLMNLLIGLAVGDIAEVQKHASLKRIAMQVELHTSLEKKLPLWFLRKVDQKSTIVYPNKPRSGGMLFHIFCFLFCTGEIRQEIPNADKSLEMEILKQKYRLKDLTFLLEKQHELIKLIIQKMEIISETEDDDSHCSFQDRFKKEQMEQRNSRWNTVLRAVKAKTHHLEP

Compound | IC50 (human TRPA1) [nM] | IC50 (rat TRPA1) [nM] | inhibition at 10 µM (rat TRPA1) [%] | inhibition at 1 µM (rat TRPA1) [%]
Cc1oc2c(c1CC(=O)Nc1nc(-c3cc(F)c(OCC(F)(F)F)c(F)c3)cs1)c(=O)n(C)c(=O)n2C [Example 87, N1-{4-[3,5-Difluoro-4-(2,2,2-trifluoroethoxy)phenyl]-1,3-thiazol-2-yl}-2-(1,3,6-trimethyl-2,4-dioxo-1,2,3,4-tetrahydrofuro[2,3-d]pyrimidin-5-yl)acetamide] | 1.68 | < 50 | – | –
Cc1oc2c(c1CC(=O)Nc1nc(-c3cc(Cl)c(OCC(F)(F)F)c(Cl)c3)cs1)c(=O)n(C)c(=O)n2C [Example 88, N1-{4-[3,5-Dichloro-4-(2,2,2-trifluoroethoxy)phenyl]-1,3-thiazol-2-yl}-2-(1,3,6-trimethyl-2,4-dioxo-1,2,3,4-tetrahydrofuro[2,3-d]pyrimidin-5-yl)acetamide] | 1.77 | – | 100 | 98.3
Cc1oc2c(c1CC(=O)Nc1nc(-c3cc(F)c(OCC4CC4)c(F)c3)cs1)c(=O)n(C)c(=O)n2C [Example 89, N1-{4-[4-(Cyclopropylmethoxy)-3,5-difluorophenyl]-1,3-thiazol-2-yl]-2-(1,3,6-trimethyl-2,4-dioxo-1,2,3,4-tetrahydrofuro[2,3-d]pyrimidin-5-yl)acetamide] | 9.72 | 50 to 100 | 98.8 | –
Cc1oc2c(c1CC(=O)Nc1nc(-c3ccc(F)c(C(F)(F)F)c3)c(C)s1)c(=O)n(C)c(=O)n2C [Example 90, N1-{4-[4-Fluoro-3-(trifluoromethyl)phenyl]-5-methyl-1,3-thiazol-2-yl}-2-(1,3,6-trimethyl-2,4-dioxo-1,2,3,4-tetrahydrofuro[2,3-d]pyrimidin-5-yl)acetamide] | 14.2 | – | 99.5 | 98
